{"source": "patent US20210405025A1", "about": "“IDENTIFYING COMPOUNDS FOR TREATING CANCER AND USE THEREOF” (THE UAB RESEARCH FOUNDATION, priority 2018, published 2021)", "note": "Where a name gives a salt, the structure may show the parent alone.", "data": [{"tested_on": "relapsed AML cells", "experiment": "Drug sensitivity assay, 1,536-well, 3-day culture with individual approved drugs at 10 μM, viability by alamarBlue", "assay_type": "cell-based, human", "conditions": "not given", "in_short": "(§1)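 FACS-sorted viable myeloid blasts from thawed AML samples, 4,000-4,500 cells per 5 μL well, cultured in IMDM with 15% BIT, SCF, FLT3L, IL-3, G-CSF. Drugs added per well; after three days percentage of live cells measured to gauge killing.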", "values": [{"molecule": "ZINC PYRITHIONE", "#Cases >70% cell death": 9}]}, {"tested_on": "relapsed AML cells", "experiment": "Drug sensitivity assay, 1,536-well, 3-day culture with individual approved drugs at 10 μM, viability by alamarBlue", "assay_type": "cell-based, human", "conditions": "number of relapsed AML cases out of 18 tested with >70% cell death; 10 μM, 3-day culture", "in_short": "as §1", "values": [{"molecule": "Cc1ccc(C(=O)Nc2ccc(CN3CCN(C)CC3)c(C(F)(F)F)c2)cc1C#Cc1cnc2cccnn12", "note": "[PONATINIB]", "#Cases >70% cell death": 18}, {"molecule": "C[C@@H]1C[C@H]2[C@@H]3CCC4=CC(=O)C=C[C@]4(C)[C@@]3(Cl)[C@@H](O)C[C@]2(C)[C@@]1(OC(=O)c1ccco1)C(=O)CCl", "note": "[MOMETASONE FUROATE]", "#Cases >70% cell death": 2}, {"molecule": "O=C(CCCN1CCN(c2ccccn2)CC1)c1ccc(F)cc1", "note": "[AZAPERONE]", "#Cases >70% cell death": 1}, {"molecule": "AMONAFIDE MALATE", "#Cases >70% cell death": 8}, {"molecule": "Nc1nc2nn[nH]c2c(=O)[nH]1", "note": "[8-AZAGUANINE]", "#Cases >70% cell death": 1}, {"molecule": "Cn1cncc1[C@@](N)(c1ccc(Cl)cc1)c1ccc2c(c1)c(-c1cccc(Cl)c1)cc(=O)n2C", "note": "[TIPIFARNIB]", "#Cases >70% cell death": 7}, {"molecule": "CN1CCN(CCCN2c3ccccc3Sc3ccc(Cl)cc32)CC1", "note": "[PROCHLORPERAZINE]", "#Cases >70% cell death": 6}, {"molecule": "COc1cc(C(=O)NCc2ccc(OCCN(C)C)cc2)cc(OC)c1OC", "note": "[TRIMETHOBENZAMIDE HYDROCHLORIDE]", "#Cases >70% cell death": 1}, {"molecule": "C[C@H]1O[C@@H](O[C@H]2[C@@H](O)C[C@H](O[C@H]3[C@@H](O)C[C@H](O[C@H]4CC[C@@]5(C)[C@H](CC[C@@H]6[C@@H]5CC[C@]5(C)[C@@H](C7=CC(=O)OC7)CC[C@]65O)C4)O[C@@H]3C)O[C@@H]2C)C[C@H](O)[C@@H]1O", "note": "[DIGITOXIN]", "#Cases >70% cell death": 18}, {"molecule": "CCCCCCCCCCC[C@@H](C[C@@H]1OC(=O)[C@H]1CCCCCC)OC(=O)[C@H](CC(C)C)NC=O", "note": "[ORLISTAT]", "#Cases >70% cell death": 9}, {"molecule": "C[C@@H](Oc1cc(-c2cnn(C3CCNCC3)c2)cnc1N)c1c(Cl)ccc(F)c1Cl", "note": "[CRIZOTINIB]", "#Cases >70% cell death": 10}, {"molecule": "N[C@@H]1CONC1=O", "note": "[D-CYCLOSERINE]", "#Cases >70% cell death": 1}, {"molecule": "O=C(Nc1ccc([N+](=O)[O-])cc1Cl)c1cc(Cl)ccc1O", "note": "[NICLOSAMIDE]", "#Cases >70% cell death": 1}, {"molecule": "CCNC1(C(N)=O)CCN(c2ncnc3c2nc(-c2ccccc2Cl)n3-c2ccc(Cl)cc2)CC1", "note": "[CP-945]", "#Cases >70% cell death": 1}, {"molecule": "O=C(O)c1ccccc1C(=O)Nc1ccc(S(=O)(=O)Nc2nccs2)cc1", "note": "[PHTHALYLSULFATHIAZOLE]", "#Cases >70% cell death": 1}, {"molecule": "CCCCOc1ccc(CC(=O)NO)cc1", "note": "[BUFEXAMAC]", "#Cases >70% cell death": 9}, {"molecule": "OC(Cn1cncn1)(Cn1cncn1)c1ccc(F)cc1F", "note": "[FLUCONAZOLE]", "#Cases >70% cell death": 1}, {"molecule": "O=C(O)/C=C/c1ccc(-c2ccc(O)c(C34CC5CC(CC(C5)C3)C4)c2)cc1", "note": "[ADAROTENE]", "#Cases >70% cell death": 11}, {"molecule": "O=C1Cc2cc(CCN3CCN(c4nsc5ccccc45)CC3)c(Cl)cc2N1", "note": "[ZIPRASIDONE]", "#Cases >70% cell death": 3}, {"molecule": "Nc1ccn([C@@H]2O[C@H](CO)[C@@H](O)C2(F)F)c(=O)n1", "note": "[GEMCITABINE]", "#Cases >70% cell death": 16}, {"molecule": "C[C@]12CC[C@H](O)C[C@H]1CC[C@@H]1[C@@H]2C[C@@H](O)[C@]2(C)[C@@H](C3=CC(=O)OC3)CC[C@]12O", "note": "[DIGOXIGENIN]", "#Cases >70% cell death": 18}, {"molecule": "CNC(=O)c1cc(Oc2ccc(NC(=O)Nc3ccc(Cl)c(C(F)(F)F)c3)cc2)ccn1", "note": "[SORAFENIB]", "#Cases >70% cell death": 9}, {"molecule": "CCC(C)n1ncn(-c2ccc(N3CCN(c4ccc(OCC5COC(Cn6cncn6)(c6ccc(Cl)cc6Cl)O5)cc4)CC3)cc2)c1=O", "note": "(centres unmarked) [ITRACONAZOLE]", "#Cases >70% cell death": 6}, {"molecule": "C[C@]12CC[C@@H]3c4ccc(OS(=O)(=O)O)cc4CC[C@H]3[C@@H]1CCC2=O", "note": "[ESTROPIPATE]", "#Cases >70% cell death": 1}, {"molecule": "CC[C@]1(O)C[C@@H]2CN(CCc3c([nH]c4ccccc34)[C@@](C(=O)OC)(c3cc4c(cc3OC)N(C)[C@H]3[C@@](O)(C(=O)OC)[C@H](OC(C)=O)[C@]5(CC)C=CCN6CC[C@]43[C@@H]65)C2)C1", "note": "[VINBLASTINE]", "#Cases >70% cell death": 14}, {"molecule": "MONENSIN SODIUM [MONENSIN SODIUM (MONENSIN A IS SHOWN)]", "#Cases >70% cell death": 7}, {"molecule": "CCCOc1ccc2nc(NC(=O)OC)[nH]c2c1", "note": "[OXIBENDAZOLE]", "#Cases >70% cell death": 5}, {"molecule": "Cn1cnc([N+](=O)[O-])c1Sc1ncnc2nc[nH]c12", "note": "[AZATHIOPRINE]", "#Cases >70% cell death": 10}, {"molecule": "CC(=O)O[C@@]12CO[C@@H]1C[C@H](O)[C@@]1(C)C(=O)[C@H](O)C3=C(C)[C@@H](OC(=O)[C@H](O)[C@@H](NC(=O)OC(C)(C)C)c4ccccc4)C[C@@](O)([C@@H](OC(=O)c4ccccc4)[C@H]21)C3(C)C", "note": "[DOCETAXEL]", "#Cases >70% cell death": 5}, {"molecule": "C#CCC(Cc1cnc2nc(N)nc(N)c2n1)c1ccc(C(=O)N[C@@H](CCC(=O)O)C(=O)O)cc1", "note": "(some centres unmarked) [PRALATREXATE(FOLOTYN, PRALATREXATE]", "#Cases >70% cell death": 5}, {"molecule": "CC1(C)CC[C@]2(C(=O)O)CC[C@]3(C)[C@H](C(=O)C=C4[C@@]5(C)C=C(C#N)C(=O)C(C)(C)[C@@H]5CC[C@]43C)[C@@H]2C1", "note": "[BARDOXOLONE]", "#Cases >70% cell death": 12}, {"molecule": "CCN(CC)CCOCCOC(=O)C(CC)(CC)c1ccccc1.O=C(O)CC(O)(CC(=O)O)C(=O)O", "note": "[OXELAIDIN CITRATE]", "#Cases >70% cell death": 2}, {"molecule": "CN(C)CCCOc1nn(Cc2ccccc2)c2ccccc12", "note": "[BENZYDAMINE]", "#Cases >70% cell death": 4}, {"molecule": "CC[C@@H](C(=O)[C@@H](C)[C@@H](O)[C@H](C)[C@@H]1O[C@@H]([C@@H](CC)C(=O)O)CC[C@@H]1C)[C@H]1O[C@]2(C=C[C@@H](O)[C@]3(CC[C@@](C)([C@H]4CC[C@](O)(CC)[C@H](C)O4)O3)O2)[C@H](C)C[C@@H]1C", "note": "[SALINOMYCIN]", "#Cases >70% cell death": 10}, {"molecule": "O=C(O)[C@]1(Cc2cccc(Nc3nccs3)n2)CC[C@@H](Oc2cccc(Cl)c2F)CC1", "note": "[VX-689 (MK5108)]", "#Cases >70% cell death": 1}, {"molecule": "CCCCOc1ccc(OCCCN2CCOCC2)cc1", "note": "[PRAMOXINE]", "#Cases >70% cell death": 1}, {"molecule": "COc1cc(NS(C)(=O)=O)ccc1Nc1c2ccccc2nc2ccccc12", "note": "[AMSACRINE]", "#Cases >70% cell death": 4}, {"molecule": "CCC(=O)O[C@]1(C(=O)SCF)[C@H](C)C[C@H]2[C@@H]3C[C@H](F)C4=CC(=O)C=C[C@]4(C)[C@@]3(F)[C@@H](O)C[C@@]21C", "note": "[FLUTICASONE PROPIONATE]", "#Cases >70% cell death": 3}, {"molecule": "CC(C)C[C@H](NC(=O)[C@H](CCc1ccccc1)NC(=O)CN1CCOCC1)C(=O)N[C@@H](Cc1ccccc1)C(=O)N[C@@H](CC(C)C)C(=O)[C@@]1(C)CO1", "note": "[CARFILZOMIB]", "#Cases >70% cell death": 18}, {"molecule": "CCC[C@H](Nc1nc(-c2ccc(NC(=O)NCC)c(OC)c2)ncc1C)c1cccnc1", "note": "[LEXIBULIN]", "#Cases >70% cell death": 13}, {"molecule": "O=C1CC2(CCCC2)CC(=O)N1CCNCC1COc2ccccc2O1", "note": "(centres unmarked) [BINOSPIRONE MESYLATE]", "#Cases >70% cell death": 1}, {"molecule": "CCCCC(CC)COC(=O)C(C#N)=C(c1ccccc1)c1ccccc1", "note": "(centres unmarked) [OCTOCRYLENE]", "#Cases >70% cell death": 1}, {"molecule": "CN1CCN(CCCN2c3ccccc3Sc3ccc(C(F)(F)F)cc32)CC1", "note": "[TRIFLUOPERAZINE]", "#Cases >70% cell death": 3}, {"molecule": "CCCNCC(O)COc1ccccc1C(=O)CCc1ccccc1", "note": "(centres unmarked) [PROPAFENONE]", "#Cases >70% cell death": 1}, {"molecule": "N#Cc1ccc2[nH]cc(CCCCN3CCN(c4ccc5oc(C(N)=O)cc5c4)CC3)c2c1", "note": "[VILAZODONE]", "#Cases >70% cell death": 2}, {"molecule": "CCN(CC)CCOc1ccc2c(c1)C(=O)c1cc(OCCN(CC)CC)ccc1-2", "note": "[TILORONE]", "#Cases >70% cell death": 10}, {"molecule": "C=CC(=O)N1CCC[C@@H](n2nc(-c3ccc(Oc4ccccc4)cc3)c3c(N)ncnc32)C1", "note": "[IBRUTINIB]", "#Cases >70% cell death": 2}, {"molecule": "FC(F)(F)c1ccc(/C=C/c2nc(COc3ccc(CCCCn4ccnn4)cc3)co2)cc1", "note": "[MUBRITINIB]", "#Cases >70% cell death": 1}, {"molecule": "CCCC(=O)O[C@]1(C(=O)COC(C)=O)CC[C@H]2[C@@H]3C[C@H](F)C4=CC(=O)C=C[C@]4(C)[C@@]3(F)[C@@H](O)C[C@@]21C", "note": "[DIFLUPREDNATE]", "#Cases >70% cell death": 1}]}]}
